Source: US20140378408A1, “NUCLEOSIDE 5'-PHOSPHOROTHIOATE ANALOGUES AND USES THEREOF” (BAR-ILAN UNIVERSITY, an Israeli University, priority 2012, published 2014)

Columns and labels:
[1] = biological target: T1, human P2Y2-R (Homo sapiens, UniProt P41231); assay: [Ca^2+]i response of 1321N1 astrocytoma cells expressing P2Y2-R GFP; type: cell-based; settings: for EC50: agonist, read-out: EC50 at the P2Y2 receptor; for activity at the P2Y2 receptor: isomer A of APPCCl2P-α-S at 100 μM
T1 construct: expressed in transfected cells; host or cells: 1321N1 astrocytoma cells
Experimental: GFP constructs of human P2Y2-R, P2Y1-R and P2Y11-R were stably expressed in 1321N1 astrocytoma cells, which lack endogenous expression of P2X- and P2Y-receptors. The respective cDNA of the receptor gene was cloned into a pEGFPN1 vector and after transfection, using FuGENE 6 Transfection Reagent (Roche Molecular Biochemicals, Mannheim, Germany), cells were selected with 0.5 mg/ml G418 (geneticine; Merck Chemicals, Darmstadt, Germany) and grown in DMEM supplemented with 10% serum (FCS), 100 U/ml penicillin and 100 U/ml streptomycin at 37° C. and 5% CO2. The expression and cell membrane localization of the respective P2Y receptors was confirmed through the analysis of the GFP fluorescence. The functionality of the expressed GFP-labeled receptor in cells was verified by recording a change of [Ca^2+]i after stimulation with the appropriate receptor agonist.
1321N1 astrocytoma cells transfected with the respective plasmid for P2Y-R-GFP expression plated on coverslips (22 mm diameter) and grown to approximately 80% density, were incubated with 2 μM fura 2/AM and 0.02% pluronic acid in Na-HBS buffer (Hepes buffered saline: 145 mM NaCl, 5.4 mM KCl, 1.8 mM CaCl2, 1 mM MgCl2, 25 mM glucose, 20 mM Hepes/Tris pH 7.4) for 30 min at 37° C. The cells were superfused (1 ml/min, 37° C.) with different concentrations of nucleotide in Na-HBS buffer. The nucleotide-induced change of [Ca^2+] was monitored by detecting the fluorescence intensities with excitations at 340 nm and 380 nm. Only GFP-labeled cells were analyzed. Microsoft Excel (Microsoft Corp., Redmond, Wash., USA) and SigmaPlot (SPSS Inc., Chicago, Ill., USA) were used to derive the concentration-response curves and EC50 values from the average response amplitudes obtained in at least three independent experiments (Ecke et al., 2006; Ecke et al., 2008). Only cells with a clear GFP-signal and with the typical calcium response kinetics upon agonist pulse application were included in the data analysis. The nucleotide induced change of [Ca^2+]i was monitored by detecting the respective emission intensity of fura 2/AM at 510 nm with 340 nm and 380 nm excitations (Ubl et al., 1998). The average maximal amplitude of the responses and the respective standard errors were calculated from ratio of the fura 2/AM. The GFP-tagged P2Y receptors are suitable for pharmacological and physiological studies, as previously reported (Tulapurkar et al., 2004; Tulapurkar et al., 2006; Zylberg et al., 2007).

[2] = biological target: T2, Aβ42-Zn^2+ aggregates (Homo sapiens, UniProt P05067); assay: Turbidity assay at 405 nm, Aβ42-Zn^2+ aggregates
T2 construct: Aggregation of monomeric Aβ42 was achieved by adding Zn(NO3)2 to a Aβ42 solution; purchased GL-Biochem (Shanghai)
Experimental: Aβ42 was weighted and dissolved in 10 mM NaOH, sonicated for 3 min and then freeze-dried. The freeze-dried Aβ42 was dissolved in 50 mM Tris-HCl (pH 7.4). The mixture was split and the pH of one of the samples was adjusted to 7.4 and the second sample to 6.6 by addition of 200 μM HCl. Two 300 μM Aβ42 mixtures were obtained. From these mixtures, controls and Aβ42-M^2+ aggregates were prepared by the addition of 1 mM Zn(NO3)2 or Cu(NO3)2 in DDW: 1. 200 μM Aβ42 (pH 7.4); 2. 200 μM Aβ42 (pH 6.6); 3.4×200 μM Aβ42-Zn^2+ (pH 7.4); 4.4×200 μM Aβ42-Cu^2+ (pH 6.6). The mixtures were left at RT for 2 h to form aggregates. 1 mM EDTA, ADP-β-S, and APCPP-γ-S in DDW were added to Aβ42-Zn^2+/Cu^2+ aggregates, then the mixtures were diluted with buffer to give the following mixtures: (i) 50 μM Aβ42-Cu^2+/Zn^2+; (ii) 50 μM Aβ42-Cu^2+/Zn^2+ containing 150 μM chelator (3 eq or) 300 μM chelator (6 eq) final volume 100 μl. The mixtures left at RT for 30 min before measurements, done in duplicate. 80 μl sample was taken for measurements in a quartz cuvette.
Aggregation of Aβ-metal ion complexes results in a turbid mixture that increases the light scattering in solution, leading to a higher absorbance at 405 nm (Storr et al., 2009).
Aggregation of monomeric Aβ42 was achieved by adding Zn(NO3)2 to a Aβ42 solution at pH 7.4, and Cu(NO3)2 to a Aβ42 solution at pH 6.6. […] The resultant Aβ42 mixtures were assayed for the resolubilization capacity of ADP-β-S and APCPP-γ-S in comparison to EDTA. […] At […] chelator, EDTA, ADP-β-S and APCPP-γ-S were almost equi-efficacious (FIG. 8B).

T1 sequence (P41231 whole entry): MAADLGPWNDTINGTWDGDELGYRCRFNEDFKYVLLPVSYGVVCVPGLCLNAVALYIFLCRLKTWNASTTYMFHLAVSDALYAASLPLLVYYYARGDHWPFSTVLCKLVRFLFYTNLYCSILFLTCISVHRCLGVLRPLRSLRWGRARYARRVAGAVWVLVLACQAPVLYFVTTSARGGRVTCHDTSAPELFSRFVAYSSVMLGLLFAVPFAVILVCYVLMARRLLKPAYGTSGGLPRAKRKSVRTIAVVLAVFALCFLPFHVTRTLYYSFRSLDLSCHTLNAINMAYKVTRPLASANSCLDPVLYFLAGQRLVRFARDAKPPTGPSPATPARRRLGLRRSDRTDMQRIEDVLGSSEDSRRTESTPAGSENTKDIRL
T2 sequence (P05067 672-713 limits assumed): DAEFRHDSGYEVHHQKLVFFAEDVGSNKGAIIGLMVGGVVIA

Row | SMILES | EC50 [1] [µM] | less effective than EDTA by ([2]; 3 eq) [%] | less effective than EDTA by ([2]; 6 eq) [%] | activity at the P2Y2 receptor [1]
1 | Nc1ncnc2c1ncn2[C@@H]1O[C@H](COP(O)(=S)OP(=O)(O)C(Cl)(Cl)P(=O)(O)O)[C@@H](O)[C@H]1O (single isomer, unassigned) [APPCCl2P-α-S, adenosine 5′-[Pα-thio]-β,γ-(dichloromethylene)triphosphate] | > 10 | – | – | –
2 | Nc1ncnc2c1ncn2[C@@H]1O[C@H](COP(=O)(O)OP(O)(O)=S)[C@@H](O)[C@H]1O [ADP-β-S, adenosine 5′-[β-thio]diphosphate, reference compound] | – | 63 | 27 | –
3 | Nc1ncnc2c1ncn2[C@@H]1O[C@H](COP(=O)(O)CP(=O)(O)OP(O)(O)=S)[C@@H](O)[C@H]1O [APCPP-γ-S, adenosine 5′-[Pγ-thio]-α,β-methylenetriphosphate] | > 10 | 21 | 12 | neither agonist nor antagonist
4 | Nc1ncnc2c1ncn2[C@@H]1O[C@H](COP(O)(=S)OP(=O)(O)C(Cl)(Cl)P(=O)(O)O)[C@@H](O)[C@H]1O (single isomer, unassigned; isomer a) [APPCCl2P-α-S (isomer A), adenosine 5′-[Pα-thio]-β,γ-(dichloromethylene)triphosphate] | – | – | – | no activity as agonist
